Measurements reported in US20230310445A1, “LOX ENZYME INHIBITING METHODS AND COMPOSITIONS” (ANOVIA BIOSCIENCES, INC., priority 2020, published 2023).
Where two headings read alike, the source gives them in different places. One block for each compound: values may come before it.

What was measured:
[1] = Permeability study in Caco-2 cell line; format: in vitro ADME; conditions: human; for efflux ratio at 2 h, 5 μM: Caco-2, pH 7.4; for Papp A→B at 2 h, 5 μM: Caco-2, apical to basolateral; for Papp A→B at 2 h, 5 μM / Papp B→A at 2 h, 5 μM: pH 7.4; for Papp B→A at 2 h, 5 μM: Caco-2, basolateral to apical
Procedure: Caco-2 cell suspensions were dispensed into the inserts of the 96-well HTS Transwell plate and cultivated for 14-18 days. Transepithelial electrical resistance (TEER) across the monolayer was measured using Millicell Epithelial Volt-Ohm measuring system. The Caco-2 plate was then washed twice with pre-warmed HBSS (pH 7.4) and incubated at 37° C. for 30 minutes. To determine the rate of drug transport in the apical to basolateral direction. 5 μM test compound was added to the Transwell insert and the wells in the receiver plate were filled with HBSS (pH 7.4). To determine the rate of drug transport in the basolateral to apical direction, 5 μM test compound was added to the receiver plate wells and then the Transwell inserts were filled with HBSS (pH 7.4). The plates were incubated at 37° C. for 2 hours. 50 μL samples from donor sides and receiver sides were transferred to wells of a new 96-well plate followed by the addition of 4 volume of cold methanol containing internal standards (IS). Samples were centrifuged and the supernatant was used for LC-MS/MS analysis. After the incubation, residue solutions were removed from the Transwell plates, and Lucifer yellow (100 μM) solution was added to each Transwell insert, followed by filling the receiver wells with HBSS. The plates were incubated at 37° C. for 30 minutes. 80 μL samples were removed from the apical and basolateral wells and the fluorescence of Lucifer yellow was measured in a microplate reader with 485 nm excitation and 530 nm emission.

[2] = Microsome stability study; format: in vitro ADME, mouse; conditions: for half-life at 2 μM / microsomal CLint at 2 μM / CLint scaled at 2 μM: CD-1, pH 7.4; for half-life at 2 μM / microsomal CLint at 2 μM: male mouse liver microsomes 0.5 mg/mL, NADPH; for CLint scaled at 2 μM: male, read-out: Scaled-up CLint; for CLint scaled at 2 μM / Predicted hepatic CL: mouse liver microsomes
Procedure: Pooled CD-1 mouse liver microsomes at 0.5 mg/mL were pre-incubated in phosphate buffer (100 mM, pH 7.4) containing 1 mM NADPH and 3 mM MgCl2 in a 96-well plate for 5 minutes at 37° C. Ultra-pure water was added instead of NADPH in the negative control group to exclude the misleading factor that resulted from instability of chemical itself. The reaction was initiated by adding test compound at the final concentration of 2 μM and incubated at 37° C. Aliquots were taken from the incubation at 0, 15, 30, 45 and 60 minutes followed by the addition of 4 volume of cold acetonitrile containing internal standards. Samples were centrifuged and supernatant was used for LC-MS/MS analysis.

[3] = target: T1, Bovine lysyl oxidase (LOX) (Bos taurus, UniProt P33072); assay: LOX inhibition assay (fluorometric, cadaverine/Amplex Red/HRP); format: biochemical; conditions: IC50 class; bovine tendon LOX, cadaverine substrate; read-out: Activity Range LOX
T1 construct: from tissue; host or cells: adult bovine tendon
T1 sequence (P33072 170-418): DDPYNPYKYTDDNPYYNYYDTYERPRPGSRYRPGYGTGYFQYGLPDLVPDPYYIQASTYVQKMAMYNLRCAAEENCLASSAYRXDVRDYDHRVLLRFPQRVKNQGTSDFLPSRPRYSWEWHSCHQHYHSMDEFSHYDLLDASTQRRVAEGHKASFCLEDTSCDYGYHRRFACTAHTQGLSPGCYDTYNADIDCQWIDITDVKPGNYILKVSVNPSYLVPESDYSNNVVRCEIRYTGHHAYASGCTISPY
Summary of the method: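 Bovine tendon-extracted LOX was preincubated 30 min at 37 °C with compound. Cadaverine/Amplex Red/HRP was then added and fluorescence (ex530/em600) monitored for 120 min at 37 °C. Progress-curve slopes, background-subtracted against no-protein wells, were normalised to DMSO controls and fitted with a four-parameter variable-slope dose-response model.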

[4] = Caco-2, pH 7.4, Caco-2, apical to basolateral, read-out: Recovery (%)AP-BL
[5] = Caco-2, pH 7.4, Caco-2, basolateral to apical, read-out: Recovery (%)BL-AP

SMILES: CS(=O)(=O)[C@H]1C[C@@H](S(=O)(=O)c2cccc(CN)c2)CN(c2ccccc2)C1 (racemic) [Example 23, cis-(3-((-5-(Methylsulfonyl)-1-phenylpiperidin-3-yl)sulfonyl)phenyl)methanamine]
- efflux ratio at 2 h, 5 μM [1]: 61.4
- recovery at 2 h, 5 μM [1, 4]: 86.5%
- recovery at 2 h, 5 μM [1, 5]: 103%
- Papp A→B at 2 h, 5 μM [1]: 0.38 ×10⁻⁶ cm/s
- Papp B→A at 2 h, 5 μM [1]: 23.3 ×10⁻⁶ cm/s
- half-life at 2 μM [2]: 4.49 h
- microsomal CLint at 2 μM [2]: 5.14 µL/min/mg
- CLint scaled at 2 μM [2]: 22.5 mL/min/kg
- Predicted hepatic CL [2]: 18.00 mL/min/kg
- IC50 [3]: > 30 µM

SMILES: CS(=O)(=O)N1C[C@H](Oc2cccc(CN)c2)C[C@H](c2ccccc2F)C1 (racemic) [Example 70, cis-(3-((5-(2-Fluorophenyl)-1-(methylsulfonyl)piperidin-3-yl)oxy)phenyl)methanamine 2,2,2-trifluoroacetate]
- IC50 [3]: > 30 µM

SMILES: CN(C)C(=O)N1C[C@@H](c2ccccc2)C[C@@H](S(=O)(=O)c2cccc(CN)c2)C1.O=C(O)C(F)(F)F (racemic) [Example 74, cis-3-((3-(Aminomethyl)phenyl)sulfonyl)-N,N-dimethyl-5-phenylpiperidine-1-carboxamide 2,2,2-trifluoroacetate]
- efflux ratio at 2 h, 5 μM [1]: 47.1
- recovery at 2 h, 5 μM [1, 4]: 77.4%
- recovery at 2 h, 5 μM [1, 5]: 90.8%
- Papp A→B at 2 h, 5 μM [1]: 0.71 ×10⁻⁶ cm/s
- Papp B→A at 2 h, 5 μM [1]: 33.3 ×10⁻⁶ cm/s
- half-life at 2 μM [2]: 1.89 h
- microsomal CLint at 2 μM [2]: 12.2 µL/min/mg
- CLint scaled at 2 μM [2]: 53.6 mL/min/kg
- Predicted hepatic CL [2]: 33.58 mL/min/kg
- IC50 [3]: > 30 µM

SMILES: CS(=O)(=O)[C@@H]1C[C@@H](S(=O)(=O)c2cccc(CN)c2)CN(c2ccccc2)C1 (racemic) [Example 79, trans-(3-((-5-(Methylsulfonyl)-1-phenylpiperidin-3-yl)sulfonyl)phenyl)methanamine]
- IC50 [3]: > 30 µM

SMILES: NCc1cccc(S(=O)(=O)N2C[C@H](C(=O)N3CCS(=O)(=O)CC3)C[C@@H](c3ccccc3)C2)c1 (racemic) [Example 85, trans-(1-((3-(Aminomethyl)phenyl)sulfonyl)-5-phenylpiperidin-3-yl)(1,1-dioxidothiomorpholino)methanone 2,2,2-trifluoroacetate]
- IC50 [3]: > 30 µM

SMILES: CS(=O)(=O)[C@H]1C[C@@H](S(=O)(=O)c2cccc(CN)c2)CN(c2ccccc2F)C1 (racemic) [Example 92, cis-(3-((-1-(2-Fluorophenyl)-5-(methylsulfonyl)piperidin-3-yl)sulfonyl)phenyl)methanamine 2,2,2-trifluoroacetate]
- IC50 [3]: > 30 µM

SMILES: NCc1cccc(S(=O)(=O)N2C[C@H](C(=O)N3CCS(=O)(=O)CC3)C[C@@H](c3ccccc3)C2)n1 (racemic) [Example 115T, trans-(1-((6-(Aminomethyl)pyridin-2-yl)sulfonyl)-5-phenylpiperidin-3-yl)(1,1-dioxidothiomorpholino)methanone 2,2,2-trifluoroacetate]
- IC50 [3]: > 30 µM

SMILES: NCc1ccc(S(=O)(=O)N2C[C@@H](C(=O)N3CCOCC3)C[C@@H](C3CCCCC3)C2)s1.O=C(O)C(F)(F)F (racemic) [Example 120, cis-(1-((5-(Aminomethyl)thiophen-2-yl)sulfonyl)-5-cyclohexylpiperidin-3-yl)(morpholino)methanone 2,2,2-trifluoroacetate]
- half-life at 2 μM [2]: 0.617 h
- microsomal CLint at 2 μM [2]: 37.4 µL/min/mg
- CLint scaled at 2 μM [2]: 164 mL/min/kg
- Predicted hepatic CL [2]: 58.07 mL/min/kg
- IC50 [3]: ≤ 0.5 µM

SMILES: NCc1ccnc(S(=O)(=O)N2C[C@@H](C(=O)N3CCS(=O)(=O)CC3)C[C@@H](c3ccccc3)C2)c1 (racemic) [Example 134, cis-(1-((4-(Aminomethyl)pyridin-2-yl)sulfonyl)-5-phenylpiperidin-3-yl)(1,1-dioxidothiomorpholino)methanone 2,2,2-trifluoroacetate]
- IC50 [3]: 1 to 30 µM

SMILES: NCc1ccnc(S(=O)(=O)N2C[C@@H](C(=O)N3CCOCC3)C[C@@H](c3ccccc3)C2)c1 (relative stereo) [Example 133, cis-(1-((4-(Aminomethyl)pyridin-2-yl)sulfonyl)-5-phenylpiperidin-3-yl)(morpholino)methanone 2,2,2-trifluoroacetate]
- IC50 [3]: 1 to 30 µM

SMILES: NCc1ccnc(S(=O)(=O)N2C[C@@H](C(=O)N3CCOCC3)C[C@@H](c3ccccc3)C2)c1 [Example 133A, ((3S,5S)-1-((4-(aminomethyl)pyridin-2-yl)sulfonyl)-5-phenylpiperidin-3-yl)(morpholino)methanone 2,2,2-trifluoroacetate]
- IC50 [3]: 1 to 30 µM

Next, values leading:

- IC50 [3]: > 30 µM
SMILES: NCc1cccc(S(=O)(=O)N2C[C@@H](C(=O)N3CCOCC3)C[C@@H](C3CCCCC3)C2)c1 (racemic) [Example 139, cis-(1-((3-(Aminomethyl)phenyl)sulfonyl)-5-cyclohexylpiperidin-3-yl)(morpholino)methanone]

- IC50 [3]: > 30 µM
SMILES: NCc1cccc(S(=O)(=O)N2C[C@@H](C(=O)N3CCS(=O)(=O)CC3)C[C@@H](C3CCCCC3)C2)c1 (racemic) [Example 140, cis-(1-((3-(Aminomethyl)phenyl)sulfonyl)-5-cyclohexylpiperidin-3-yl)(1,1-dioxidothiomorpholino)methanone]

- IC50 [3]: 1 to 30 µM
SMILES: CN(C)C(=O)[C@H]1C[C@@H](C2CCCCC2)CN(S(=O)(=O)c2cc(CN)ccn2)C1 (racemic) [Example 144, cis-1-((4-(Aminomethyl)pyridin-2-yl)sulfonyl)-5-cyclohexyl-N,N-dimethylpiperidine-3-carboxamide 2,2,2-trifluoroacetate]

- IC50 [3]: 1 to 30 µM
SMILES: NCc1ccnc(S(=O)(=O)N2C[C@@H](C(=O)N3CCOCC3)C[C@@H](C3CCCCC3)C2)c1 (racemic) [Example 145, cis-(1-((4-(Aminomethyl)pyridin-2-yl)sulfonyl)-5-cyclohexylpiperidin-3-yl)(morpholino)methanone 2,2,2-trifluoroacetate]

- half-life at 2 μM [2]: 0.533 h
- microsomal CLint at 2 μM [2]: 43.3 µL/min/mg
- CLint scaled at 2 μM [2]: 190 mL/min/kg
- Predicted hepatic CL [2]: 61.03 mL/min/kg
- IC50 [3]: 1 to 30 µM
SMILES: NCc1ccnc(S(=O)(=O)N2C[C@@H](C(=O)N3CCS(=O)(=O)CC3)C[C@@H](C3CCCCC3)C2)c1.O=C(O)C(F)(F)F (racemic) [Example 146, cis-(1-((4-(Aminomethyl)pyridin-2-yl)sulfonyl)-5-cyclohexylpiperidin-3-yl)(1,1-dioxidothiomorpholino)methanone 2,2,2-trifluoroacetate]

- IC50 [3]: > 30 µM
SMILES: CN(C)C(=O)[C@H]1C[C@@H](C2CCCCC2)CN(S(=O)(=O)c2cccc(CN)c2)C1 (relative stereo) [Example 138, cis-1-((3-(Aminomethyl)phenyl)sulfonyl)-5-cyclohexyl-N,N-dimethylpiperidine-3-carboxamide 2,2,2-trifluoroacetate]

- IC50 [3]: 1 to 30 µM
SMILES: NCc1ccnc(S(=O)(=O)N2C[C@H](C(=O)N3CCOCC3)C[C@H](c3ccccc3)C2)c1 [Example 133B, ((3R,5R)-1-((4-(aminomethyl)pyridin-2-yl)sulfonyl)-5-phenylpiperidin-3-yl)(morpholino)methanone 2,2,2-trifluoroacetate]
